The values that follow come from ChEMBL document CHEMBL5532651, “HDAC specificity and kinase off-targeting by purine-benzohydroxamate anti-hematological tumor agents” (Eur J Med Chem, 2024).

Assay [1] has as its system Jurkat. The assay is described as follows: Cytotoxicity against human Jurkat cells assessed as cell growth inhibition at 0.02 to 1.3 uM by MTT assay. It is filed as functional, cell-based. The note with it: dose 0.02-1.3 µM, time lower 24.0 hrs, time upper […], TDE = time-dependent effect.
In assay [2] the test system is NAMALVA. The assay is described as follows: Cytotoxicity against human NAMALVA cells assessed as cell growth inhibition at 0.1 to 10.5 uM by MTT assay. It is filed as functional, cell-based. The settings on record: dose 0.1-10.5 µM, time lower 24.0 hrs, time upper […], TDE = time-dependent effect.
The test system of assay [3] is U-937. The assay is described as follows: Cytotoxicity against human U-937 cells assessed as cell growth inhibition at 1.6 to 3.6 uM by MTT assay. The note with it: dose 1.6-3.6 µM, time lower 24.0 hrs, time upper […], TDE = time-dependent effect. It is filed as functional, cell-based.
For assay [4], the target named is T1, Tyrosine-protein kinase JAK2 (Homo sapiens, UniProt O60674). Description: Inhibition of JAK2 (unknown origin) preincubated for 30 mins followed by ATP addition measured after 30 mins by HTRF assay.
T1 sequence (O60674 whole entry): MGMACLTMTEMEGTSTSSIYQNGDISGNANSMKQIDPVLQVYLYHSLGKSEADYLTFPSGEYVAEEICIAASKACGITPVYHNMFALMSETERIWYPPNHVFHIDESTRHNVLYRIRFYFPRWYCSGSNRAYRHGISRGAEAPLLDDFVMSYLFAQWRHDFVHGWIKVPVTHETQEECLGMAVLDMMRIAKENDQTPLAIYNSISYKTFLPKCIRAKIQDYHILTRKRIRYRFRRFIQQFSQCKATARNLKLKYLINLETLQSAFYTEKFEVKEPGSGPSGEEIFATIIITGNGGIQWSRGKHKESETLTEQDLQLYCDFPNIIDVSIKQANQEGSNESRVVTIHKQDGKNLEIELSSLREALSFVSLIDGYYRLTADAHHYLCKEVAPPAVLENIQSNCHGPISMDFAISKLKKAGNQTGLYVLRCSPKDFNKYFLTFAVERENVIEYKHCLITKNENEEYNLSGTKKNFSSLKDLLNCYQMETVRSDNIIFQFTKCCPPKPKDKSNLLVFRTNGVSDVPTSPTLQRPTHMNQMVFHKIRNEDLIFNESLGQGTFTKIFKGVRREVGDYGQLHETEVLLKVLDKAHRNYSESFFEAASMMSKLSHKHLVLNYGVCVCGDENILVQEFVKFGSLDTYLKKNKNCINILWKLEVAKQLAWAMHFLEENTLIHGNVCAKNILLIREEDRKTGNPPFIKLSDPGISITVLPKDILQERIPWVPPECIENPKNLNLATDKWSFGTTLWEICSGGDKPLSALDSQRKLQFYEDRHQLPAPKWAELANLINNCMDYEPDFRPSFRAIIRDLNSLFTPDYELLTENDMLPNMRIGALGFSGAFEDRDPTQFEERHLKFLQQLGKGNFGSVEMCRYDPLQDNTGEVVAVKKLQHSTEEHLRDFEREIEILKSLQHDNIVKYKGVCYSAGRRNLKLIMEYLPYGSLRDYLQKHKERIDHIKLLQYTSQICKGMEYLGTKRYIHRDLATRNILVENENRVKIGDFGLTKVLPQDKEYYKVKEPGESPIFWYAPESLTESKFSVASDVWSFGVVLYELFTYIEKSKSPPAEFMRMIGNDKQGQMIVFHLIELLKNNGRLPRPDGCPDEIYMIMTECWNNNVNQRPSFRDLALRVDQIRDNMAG
For assay [5], the target named is Tyrosine-protein kinase BTK (Homo sapiens) (UniProt Q06187). Description: Inhibition of BTK (unknown origin) at 100 uM preincubated for 20 mins followed by 33P-ATP addition measured after 2 hrs by HotSpot kinase assay relative to control. The note with it: time 140.0 min.
Sequence of Tyrosine-protein kinase BTK (Homo sapiens) (Q06187 whole entry): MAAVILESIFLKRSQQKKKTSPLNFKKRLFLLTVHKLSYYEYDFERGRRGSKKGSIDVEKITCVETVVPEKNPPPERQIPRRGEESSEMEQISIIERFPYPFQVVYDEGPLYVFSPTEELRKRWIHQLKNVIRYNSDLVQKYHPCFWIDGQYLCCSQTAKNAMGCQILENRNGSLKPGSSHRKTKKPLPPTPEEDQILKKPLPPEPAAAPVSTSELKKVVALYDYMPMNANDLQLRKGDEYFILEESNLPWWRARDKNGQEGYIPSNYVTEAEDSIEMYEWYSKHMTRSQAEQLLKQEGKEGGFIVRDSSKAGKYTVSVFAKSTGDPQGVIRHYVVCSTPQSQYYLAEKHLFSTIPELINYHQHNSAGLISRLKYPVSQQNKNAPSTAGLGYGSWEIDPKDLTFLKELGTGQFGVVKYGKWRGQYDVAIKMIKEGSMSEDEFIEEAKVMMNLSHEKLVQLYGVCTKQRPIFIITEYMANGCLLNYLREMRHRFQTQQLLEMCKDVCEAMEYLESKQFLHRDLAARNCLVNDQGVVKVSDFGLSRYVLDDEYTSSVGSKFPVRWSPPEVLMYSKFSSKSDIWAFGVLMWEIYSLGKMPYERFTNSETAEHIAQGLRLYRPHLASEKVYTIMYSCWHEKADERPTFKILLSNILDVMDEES
In assay [6] the target is Cyclin-dependent kinase 6 (Homo sapiens) (UniProt Q00534). Description: Inhibition of CDK6 (unknown origin) at 100 uM preincubated for 20 mins followed by 33P-ATP addition measured after 2 hrs by HotSpot kinase assay relative to control. The note with it: time 140.0 min.
Sequence of Cyclin-dependent kinase 6 (Homo sapiens) (Q00534 whole entry): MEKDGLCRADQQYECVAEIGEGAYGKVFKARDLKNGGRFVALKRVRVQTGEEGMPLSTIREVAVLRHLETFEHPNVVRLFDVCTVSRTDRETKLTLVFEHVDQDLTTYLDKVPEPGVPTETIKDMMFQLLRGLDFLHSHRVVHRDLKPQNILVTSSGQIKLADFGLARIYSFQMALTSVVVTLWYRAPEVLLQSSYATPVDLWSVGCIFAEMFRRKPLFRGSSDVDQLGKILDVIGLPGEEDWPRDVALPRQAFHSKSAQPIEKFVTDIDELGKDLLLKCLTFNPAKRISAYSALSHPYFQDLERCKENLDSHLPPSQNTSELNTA
Assay [7] addresses T1, Tyrosine-protein kinase JAK2. Description: Inhibition of JAK2 (unknown origin) at 100 uM preincubated for 20 mins followed by 33P-ATP addition measured after 2 hrs by HotSpot kinase assay relative to control. The settings on record: time 140.0 min.
Assay [8] has as its target Tyrosine-protein kinase JAK3 (Homo sapiens) (UniProt P52333). Description: Inhibition of JAK3 (unknown origin) at 100 uM preincubated for 20 mins followed by 33P-ATP addition measured after 2 hrs by HotSpot kinase assay relative to control. The settings on record: time 140.0 min.
The target in assay [9] is Tyrosine-protein kinase SYK (Homo sapiens) (UniProt P43405). The assay is described as follows: Inhibition of SYK (unknown origin) at 100 uM preincubated for 20 mins followed by 33P-ATP addition measured after 2 hrs by HotSpot kinase assay relative to control. The note with it: time 140.0 min.
The target of assay [10] is High affinity nerve growth factor receptor (Homo sapiens) (UniProt P04629). The assay is described as follows: Inhibition of TRKa (unknown origin) at 100 uM preincubated for 20 mins followed by 33P-ATP addition measured after 2 hrs by HotSpot kinase assay relative to control. The note with it: time 140.0 min.
Sequence of High affinity nerve growth factor receptor (Homo sapiens) (P04629 33-796 limits assumed): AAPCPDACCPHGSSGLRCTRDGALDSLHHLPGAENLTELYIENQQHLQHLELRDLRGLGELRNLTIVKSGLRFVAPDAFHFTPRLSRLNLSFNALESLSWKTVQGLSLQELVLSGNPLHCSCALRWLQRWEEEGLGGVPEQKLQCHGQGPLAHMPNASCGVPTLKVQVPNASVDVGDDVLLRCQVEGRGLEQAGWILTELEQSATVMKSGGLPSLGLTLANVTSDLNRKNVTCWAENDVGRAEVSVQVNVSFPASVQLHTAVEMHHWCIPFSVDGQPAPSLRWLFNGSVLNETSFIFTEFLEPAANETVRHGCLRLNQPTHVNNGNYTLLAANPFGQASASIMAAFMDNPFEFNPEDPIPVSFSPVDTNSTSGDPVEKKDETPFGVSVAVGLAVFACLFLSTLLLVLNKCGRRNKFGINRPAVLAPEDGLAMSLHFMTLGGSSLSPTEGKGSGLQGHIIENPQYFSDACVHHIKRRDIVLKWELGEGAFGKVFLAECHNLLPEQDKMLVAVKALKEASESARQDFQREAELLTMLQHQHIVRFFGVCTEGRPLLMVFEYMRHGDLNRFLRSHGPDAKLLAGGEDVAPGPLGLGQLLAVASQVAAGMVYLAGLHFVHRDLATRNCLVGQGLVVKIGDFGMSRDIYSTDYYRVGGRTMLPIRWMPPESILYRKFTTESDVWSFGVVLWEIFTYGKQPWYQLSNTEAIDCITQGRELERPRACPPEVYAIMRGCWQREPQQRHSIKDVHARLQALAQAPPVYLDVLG
Assay [11] deals with Phosphatidylinositol 4,5-bisphosphate 3-kinase catalytic subunit alpha isoform (Homo sapiens) (UniProt P42336). The assay is described as follows: Inhibition of PI3Ka (unknown origin) at 100 uM preincubated for 20 mins followed by 33P-ATP addition measured after 2 hrs by HotSpot kinase assay relative to control. The note with it: time 140.0 min.
Sequence of Phosphatidylinositol 4,5-bisphosphate 3-kinase catalytic subunit alpha isoform (Homo sapiens) (P42336 whole entry, canonical isoform): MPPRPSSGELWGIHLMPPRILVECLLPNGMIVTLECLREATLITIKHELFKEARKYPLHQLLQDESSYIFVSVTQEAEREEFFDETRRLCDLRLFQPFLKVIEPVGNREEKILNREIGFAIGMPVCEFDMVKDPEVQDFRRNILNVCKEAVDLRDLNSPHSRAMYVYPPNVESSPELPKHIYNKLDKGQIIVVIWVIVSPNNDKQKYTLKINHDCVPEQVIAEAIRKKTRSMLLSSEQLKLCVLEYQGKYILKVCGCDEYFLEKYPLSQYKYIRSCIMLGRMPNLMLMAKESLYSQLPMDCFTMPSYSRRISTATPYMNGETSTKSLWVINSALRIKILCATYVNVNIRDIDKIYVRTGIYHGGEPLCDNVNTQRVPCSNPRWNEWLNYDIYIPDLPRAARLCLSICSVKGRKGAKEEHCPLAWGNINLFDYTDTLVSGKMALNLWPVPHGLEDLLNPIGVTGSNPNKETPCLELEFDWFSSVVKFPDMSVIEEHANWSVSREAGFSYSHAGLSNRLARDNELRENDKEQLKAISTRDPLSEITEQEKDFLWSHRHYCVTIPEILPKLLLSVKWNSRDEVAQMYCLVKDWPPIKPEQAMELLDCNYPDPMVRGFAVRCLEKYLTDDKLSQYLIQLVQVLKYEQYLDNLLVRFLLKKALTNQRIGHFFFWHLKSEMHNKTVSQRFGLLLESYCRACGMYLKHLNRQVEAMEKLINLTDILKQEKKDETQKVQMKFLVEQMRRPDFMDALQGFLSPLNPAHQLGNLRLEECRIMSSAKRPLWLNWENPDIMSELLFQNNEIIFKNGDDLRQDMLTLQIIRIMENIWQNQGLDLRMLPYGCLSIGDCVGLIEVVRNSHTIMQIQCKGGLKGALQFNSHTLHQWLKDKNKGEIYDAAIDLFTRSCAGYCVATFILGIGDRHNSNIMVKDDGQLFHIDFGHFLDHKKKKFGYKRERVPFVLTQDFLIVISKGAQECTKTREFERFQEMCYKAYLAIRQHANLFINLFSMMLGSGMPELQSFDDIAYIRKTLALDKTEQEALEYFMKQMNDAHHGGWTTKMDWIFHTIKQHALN
For assay [12], the target named is Phosphatidylinositol 4,5-bisphosphate 3-kinase catalytic subunit beta isoform (Homo sapiens) (UniProt P42338). The assay is described as follows: Inhibition of PI3Kb (unknown origin) at 100 uM preincubated for 20 mins followed by 33P-ATP addition measured after 2 hrs by HotSpot kinase assay relative to control. The settings on record: time 140.0 min.
Assay [13] has as its target Phosphatidylinositol 4,5-bisphosphate 3-kinase catalytic subunit gamma isoform (Homo sapiens) (UniProt P48736). The assay is described as follows: Inhibition of PI3Kg (unknown origin) at 100 uM preincubated for 20 mins followed by 33P-ATP addition measured after 2 hrs by HotSpot kinase assay relative to control. The settings on record: time 140.0 min.
Assay [14] has as its target Phosphatidylinositol 4,5-bisphosphate 3-kinase catalytic subunit delta isoform (Homo sapiens) (UniProt O00329). The assay is described as follows: Inhibition of PI3Kd (unknown origin) at 100 uM preincubated for 20 mins followed by 33P-ATP addition measured after 2 hrs by HotSpot kinase assay relative to control. The settings on record: time 140.0 min.
Assay [15] concerns Jurkat. Description: Cytotoxicity against human Jurkat cells assessed as cell growth inhibition at 0.05 to 1.2 uM by MTT assay. It counts as functional, cell-based. The note with it: dose 0.05-1.2 µM, time lower 24.0 hrs, time upper […], TDE = time-dependent effect.
Assay [16] deals with NAMALVA. Description: Cytotoxicity against human NAMALVA cells assessed as cell growth inhibition at 0.1 to 9.9 uM by MTT assay. It counts as functional, cell-based. The note with it: dose 0.1-9.9 µM, time lower 24.0 hrs, time upper […], TDE = time-dependent effect.
For assay [17], the system named is U-937. Description: Cytotoxicity against human U-937 cells assessed as cell growth inhibition at 0.7 to 2.5 uM by MTT assay. It counts as functional, cell-based. The settings on record: dose 0.7-2.5 µM, time lower 24.0 hrs, time upper […], TDE = time-dependent effect.

Sequence of Phosphatidylinositol 4,5-bisphosphate 3-kinase catalytic subunit delta isoform (Homo sapiens) (O00329 whole entry, canonical isoform): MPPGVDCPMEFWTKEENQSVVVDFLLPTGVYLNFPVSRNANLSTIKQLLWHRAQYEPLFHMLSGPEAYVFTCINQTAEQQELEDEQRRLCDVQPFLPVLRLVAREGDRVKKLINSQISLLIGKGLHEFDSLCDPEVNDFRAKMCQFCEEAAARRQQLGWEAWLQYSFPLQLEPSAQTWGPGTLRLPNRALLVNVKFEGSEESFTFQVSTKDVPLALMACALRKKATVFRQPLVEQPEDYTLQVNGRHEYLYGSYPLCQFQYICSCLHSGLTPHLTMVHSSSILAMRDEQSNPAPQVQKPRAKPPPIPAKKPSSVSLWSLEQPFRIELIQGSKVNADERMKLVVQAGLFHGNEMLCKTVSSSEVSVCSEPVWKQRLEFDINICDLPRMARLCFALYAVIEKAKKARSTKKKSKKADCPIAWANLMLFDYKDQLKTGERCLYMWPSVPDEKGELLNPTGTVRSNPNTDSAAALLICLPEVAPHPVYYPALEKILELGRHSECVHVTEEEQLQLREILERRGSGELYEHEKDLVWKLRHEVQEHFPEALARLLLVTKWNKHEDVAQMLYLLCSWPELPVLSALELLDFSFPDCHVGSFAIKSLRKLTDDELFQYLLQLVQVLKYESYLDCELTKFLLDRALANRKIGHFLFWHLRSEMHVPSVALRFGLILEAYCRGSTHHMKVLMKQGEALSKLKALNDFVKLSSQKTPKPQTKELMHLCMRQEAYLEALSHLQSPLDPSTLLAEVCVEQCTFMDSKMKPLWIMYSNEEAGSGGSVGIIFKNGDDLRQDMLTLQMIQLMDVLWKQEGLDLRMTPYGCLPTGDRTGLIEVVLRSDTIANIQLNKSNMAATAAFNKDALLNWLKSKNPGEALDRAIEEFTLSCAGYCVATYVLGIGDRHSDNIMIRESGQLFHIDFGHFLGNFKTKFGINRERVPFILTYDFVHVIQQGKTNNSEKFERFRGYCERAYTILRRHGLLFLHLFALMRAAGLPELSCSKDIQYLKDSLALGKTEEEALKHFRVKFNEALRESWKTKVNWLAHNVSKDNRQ

For `O=C(NO)c1ccc(Cn2cnc3c(Nc4ccc(F)c(Cl)c4)ncnc32)cc1`, the inhibition entry was “Tde” in the assay with Jurkat [1]; “Tde” in the assay with NAMALVA [2]; “Tde” in the assay on U-937 [3]; 99.2% in [5]; 38.6% in assay [6]; 99.5% in assay [7]. Also, the inhibition in assay [8] is 94.5%; in [9], 71.2%; in [10], 99.9%; in [11], 29.8%; in assay [12] it was 62%; in assay [13], 44.2%. Moreover, the inhibition in [14] came out at 51.2%. This molecule gave a concentration for half-maximal inhibition (IC50) in assay [4] of 34.6 µM.
Turning to `COc1ccc(Nc2ncnc3c2ncn3Cc2ccc(C(=O)NO)cc2)cc1`, the inhibition entry in the assay on Jurkat [15], in the assay on NAMALVA [16] and with U-937 [17] was “Tde” each time.
